{"source": "patent US9642789B2", "about": "“Methods for generating new hair follicles, treating baldness, and hair removal” (THE TRUSTEES OF THE UNIVERSITY OF PENNSYLVANIA, priority 2005, dated 2017)", "biological_target": "T1, EGF receptor (Mus musculus, UniProt Q01279)", "T1 construct": "from tissue; host or cells: healing skin wound of live mice", "T1 sequence (Q01279 25-1210)": "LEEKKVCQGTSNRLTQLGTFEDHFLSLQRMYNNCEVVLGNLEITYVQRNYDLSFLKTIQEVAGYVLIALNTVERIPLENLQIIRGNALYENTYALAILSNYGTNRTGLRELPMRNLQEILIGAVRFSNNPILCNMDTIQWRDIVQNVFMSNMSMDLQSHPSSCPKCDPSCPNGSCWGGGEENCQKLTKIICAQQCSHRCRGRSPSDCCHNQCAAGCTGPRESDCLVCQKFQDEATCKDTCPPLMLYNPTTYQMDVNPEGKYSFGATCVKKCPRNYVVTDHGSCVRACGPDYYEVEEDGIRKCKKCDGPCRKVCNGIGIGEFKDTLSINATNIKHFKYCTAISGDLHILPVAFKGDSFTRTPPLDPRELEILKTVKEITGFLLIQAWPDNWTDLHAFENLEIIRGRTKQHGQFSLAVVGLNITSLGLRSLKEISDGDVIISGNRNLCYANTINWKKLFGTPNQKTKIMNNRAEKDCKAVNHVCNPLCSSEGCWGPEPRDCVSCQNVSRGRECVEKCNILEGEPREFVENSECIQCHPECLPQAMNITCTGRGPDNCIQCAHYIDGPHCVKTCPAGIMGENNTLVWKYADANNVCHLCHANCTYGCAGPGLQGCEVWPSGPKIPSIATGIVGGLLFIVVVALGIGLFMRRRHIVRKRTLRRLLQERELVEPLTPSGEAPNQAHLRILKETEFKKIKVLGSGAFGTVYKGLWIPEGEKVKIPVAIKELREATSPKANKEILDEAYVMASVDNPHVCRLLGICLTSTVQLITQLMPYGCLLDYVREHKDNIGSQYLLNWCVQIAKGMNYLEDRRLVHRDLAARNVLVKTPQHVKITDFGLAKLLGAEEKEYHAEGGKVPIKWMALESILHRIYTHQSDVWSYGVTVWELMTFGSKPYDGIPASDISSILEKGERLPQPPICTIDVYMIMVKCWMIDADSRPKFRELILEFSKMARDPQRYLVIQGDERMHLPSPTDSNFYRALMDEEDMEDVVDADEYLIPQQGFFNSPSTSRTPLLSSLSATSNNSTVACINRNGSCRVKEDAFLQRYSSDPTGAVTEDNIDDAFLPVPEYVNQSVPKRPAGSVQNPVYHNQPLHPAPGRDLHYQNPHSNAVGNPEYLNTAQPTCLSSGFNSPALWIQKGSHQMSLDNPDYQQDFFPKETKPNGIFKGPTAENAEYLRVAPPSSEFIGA", "test": "EDIHN after single injection of EGF receptor inhibitor into wound", "format": "in vivo, mice", "settings": "150 μM in 10 μL, single injection 11 days after 1 cm^2 incisional wounding; K17 and AP staining", "protocol": "To determine the effect of administration of EGF receptor inhibitors on DIHN, the inhibitor AG1478 (150 μM in 10 μL volume) was administered as a single injection 11 days after incisional wounding (1 cm^2) to the middle of the wound near the skin surface. […] Left panel: epidermis stained for K17, with three large hair follicles next to each other. Right panel: dermis stained for AP with large coalescing dermal papilla areas.", "note": "“Also recorded” adds a separate entry of the source."}
{"smiles": "COc1cc2ncnc(Nc3cccc(Cl)c3)c2cc1OC", "note": "[AG1478]", "values": [{"measurement": "number and size of hair follicles generated compared with control mice wounded only", "value": "more and larger hair follicles; also recorded: more and larger HF"}]}
